Results taken from PubChem BioAssay AID1963828 (Molecular Pharmacology Branch, DTP, NCI, 2024).
pIC50: −log10 of the molar value.

Test system: 991263-137-R1-J2-PDC complex spheroid viability
Experiment: Anticancer human tumor 991263-137-R1-J2-PDC patient-derived colon adenocarcinoma cell line growth inhibition [POLQ]
Conditions: for pIC50: curve of first compound; for viability, T/C: stronger effect = lower value
Outline: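 PDC + HUVEC + MSC complex spheroids; POLQ inhibitors ± partner drugs; top conc. at/near clinical Cmax, else 10 microM (SN-38 1 microM), half-log dilutions; 37 degrees C, 5% CO2.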

[1] = second compound 0.0316 µM, first compound 0.0316 µM
[2] = second compound 0.0316 µM, first compound 0.1 µM
[3] = second compound 0.1 µM, first compound 0.0316 µM
[4] = second compound 0.1 µM, first compound 0.1 µM
[5] = second compound 0.316 µM, first compound 0.0316 µM
[6] = second compound 0.316 µM, first compound 0.1 µM
[7] = second compound 1 µM, first compound 0.0316 µM
[8] = second compound 1 µM, first compound 0.1 µM
[9] = second compound 3.16 µM, first compound 0.0316 µM
[10] = second compound 3.16 µM, first compound 0.1 µM
[11] = second compound 10 µM, first compound 0.0316 µM
[12] = second compound 10 µM, first compound 0.1 µM
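Further: spheroids exposed to compounds for 7 days before readout.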
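Wherever viability, T/C is given: 100% = DMSO vehicle control viability.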

## Cn1ncnc1[C@H]1c2n[nH]c(=O)c3cc(F)cc(c23)N[C@@H]1c1ccc(F)cc1 + Cc1cccc(N(C)C(=O)C2C(O)CCN2c2nc(C)cc(C(F)(F)F)c2C#N)c1
Second compound 0.0316 µM
  pIC50: < 7.00
Second compound 0.1 µM
  pIC50: < 7.00
Second compound 0.316 µM
  pIC50: < 7.00
Second compound 1 µM
  pIC50: < 7.00
Second compound 3.16 µM
  pIC50: < 7.00
Second compound 10 µM
  pIC50: < 7.00
Second compound 0.0316 µM, first compound 0.000316 µM
  viability, T/C: 84.3%
Second compound 0.0316 µM, first compound 0.001 µM
  viability, T/C: 112%
Second compound 0.0316 µM, first compound 0.00316 µM
  viability, T/C: 123%
Second compound 0.0316 µM, first compound 0.01 µM
  viability, T/C: 93.3%
[1]
  viability, T/C: 124%
[2]
  viability, T/C: 112%
Second compound 0.1 µM, first compound 0.000316 µM
  viability, T/C: 105%
Second compound 0.1 µM, first compound 0.001 µM
  viability, T/C: 130%
Second compound 0.1 µM, first compound 0.00316 µM
  viability, T/C: 98.4%
Second compound 0.1 µM, first compound 0.01 µM
  viability, T/C: 83.8%
[3]
  viability, T/C: 91.8%
[4]
  viability, T/C: 86.9%
Second compound 0.316 µM, first compound 0.000316 µM
  viability, T/C: 97.9%
Second compound 0.316 µM, first compound 0.001 µM
  viability, T/C: 128%
Second compound 0.316 µM, first compound 0.00316 µM
  viability, T/C: 101%
Second compound 0.316 µM, first compound 0.01 µM
  viability, T/C: 92.7%
[5]
  viability, T/C: 110%
[6]
  viability, T/C: 99.4%
Second compound 1 µM, first compound 0.000316 µM
  viability, T/C: 92.1%
Second compound 1 µM, first compound 0.001 µM
  viability, T/C: 110%
Second compound 1 µM, first compound 0.00316 µM
  viability, T/C: 101%
Second compound 1 µM, first compound 0.01 µM
  viability, T/C: 104%
[7]
  viability, T/C: 99.7%
[8]
  viability, T/C: 115%
Second compound 3.16 µM, first compound 0.000316 µM
  viability, T/C: 103%
Second compound 3.16 µM, first compound 0.001 µM
  viability, T/C: 113%
Second compound 3.16 µM, first compound 0.00316 µM
  viability, T/C: 106%
Second compound 3.16 µM, first compound 0.01 µM
  viability, T/C: 78.5%
[9]
  viability, T/C: 91.7%
[10]
  viability, T/C: 106%
Second compound 10 µM, first compound 0.000316 µM
  viability, T/C: 105%
Second compound 10 µM, first compound 0.001 µM
  viability, T/C: 114%
Second compound 10 µM, first compound 0.00316 µM
  viability, T/C: 92.9%
Second compound 10 µM, first compound 0.01 µM
  viability, T/C: 74.8%
[11]
  viability, T/C: 106%
[12]
  viability, T/C: 92.5%

## CC1COCCN1c1cc(C2(S(C)(=N)=O)CC2)nc(-c2ccnc3[nH]ccc23)n1 (centres undefined) + Cc1cccc(N(C)C(=O)C2C(O)CCN2c2nc(C)cc(C(F)(F)F)c2C#N)c1
Second compound 0.0316 µM
  pIC50: < 5.00
Second compound 0.1 µM
  pIC50: < 5.00
Second compound 0.316 µM
  pIC50: < 5.00
Second compound 1 µM
  pIC50: < 5.00
Second compound 3.16 µM
  pIC50: < 5.00
Second compound 10 µM
  pIC50: < 5.00
[1]
  viability, T/C: 96.9%
[2]
  viability, T/C: 107%
Second compound 0.0316 µM, first compound 0.316 µM
  viability, T/C: 122%
Second compound 0.0316 µM, first compound 1 µM
  viability, T/C: 104%
Second compound 0.0316 µM, first compound 3.16 µM
  viability, T/C: 111%
Second compound 0.0316 µM, first compound 10 µM
  viability, T/C: 90.9%
[3]
  viability, T/C: 101%
[4]
  viability, T/C: 103%
Second compound 0.1 µM, first compound 0.316 µM
  viability, T/C: 95%
Second compound 0.1 µM, first compound 1 µM
  viability, T/C: 96.2%
Second compound 0.1 µM, first compound 3.16 µM
  viability, T/C: 117%
Second compound 0.1 µM, first compound 10 µM
  viability, T/C: 106%
[5]
  viability, T/C: 95.7%
[6]
  viability, T/C: 108%
Second compound 0.316 µM, first compound 0.316 µM
  viability, T/C: 73.7%
Second compound 0.316 µM, first compound 1 µM
  viability, T/C: 112%
Second compound 0.316 µM, first compound 3.16 µM
  viability, T/C: 84%
Second compound 0.316 µM, first compound 10 µM
  viability, T/C: 70%
[7]
  viability, T/C: 98.7%
[8]
  viability, T/C: 102%
Second compound 1 µM, first compound 0.316 µM
  viability, T/C: 94.3%
Second compound 1 µM, first compound 1 µM
  viability, T/C: 75.4%
Second compound 1 µM, first compound 3.16 µM
  viability, T/C: 96.7%
Second compound 1 µM, first compound 10 µM
  viability, T/C: 92.5%
[9]
  viability, T/C: 88.1%
[10]
  viability, T/C: 95.2%
Second compound 3.16 µM, first compound 0.316 µM
  viability, T/C: 99.2%
Second compound 3.16 µM, first compound 1 µM
  viability, T/C: 106%
Second compound 3.16 µM, first compound 3.16 µM
  viability, T/C: 101%
Second compound 3.16 µM, first compound 10 µM
  viability, T/C: 101%
[11]
  viability, T/C: 93.2%
[12]
  viability, T/C: 97%
Second compound 10 µM, first compound 0.316 µM
  viability, T/C: 98.8%
Second compound 10 µM, first compound 1 µM
  viability, T/C: 98.5%
Second compound 10 µM, first compound 3.16 µM
  viability, T/C: 98.8%
Second compound 10 µM, first compound 10 µM
  viability, T/C: 77%
